Experimental data reported in PMC9313321 (Biomedicines, 2022).
Where “and” joins values, the source holds several entries; their conditions need not be identical. Equal entries are not always repeated.

Key:
[1] = target: T1, electric eel acetylcholinesterase (eeAChE) (Electrophorus electricus, UniProt O42275); test: biochemical
T1 construct: purchased Sigma-Aldrich
Experimental: (§1) The inhibition of electric eel acetylcholinesterase (eeAChE) and equine butyrylcholinesterase (eqBChE), both obtained from Sigma-Aldrich (Burlington, MA, USA), was studied using an adaptation of Elmman’s method, as previously described. For this, tris(hydroxymethyl)aminomethane (TRIS) 50 mM buffer at pH = 8.00, 4-(2-hydroxyethyl)-1-piperazine-ethanesulfonic acid (HEPES) 50 mM buffer at pH = 8.00 and HEPES 50 mM buffer at pH = 8.00 with NaCl 50 mM and MgCl2 20 mM were prepared. […] Working solutions of AChI and BChI were prepared daily by the proper dilution of the stock solutions in distilled water. A working solution of 5,5′-dithiobis-(2-nitrobenzoic acid) (DTNB) 3 mM in HEPES (NaCl, MgCl2) was prepared daily and kept under darkness. Stock solutions of eeAChE and eqBChE were prepared by dissolving the lyophilized powder enzyme in 10 mL of TRIS buffer under ice and they were divided into aliquots of 50 and 5 UN mL^−1 that were stored at −20 °C until needed. Stock solutions of 1 mg of each ligand in 1 mL MeOH (with 20% of DMSO) were prepared and working solutions for each ligand were obtained by the corresponding dilution from the stock solutions. A control measurement with 5 replicates (without ligand) and a calibration curve of 5 points with 3 replicates per point was derived. […] A blank solution containing HEPES (399 μL) and MeOH (50 μL) was prepared at the same time. […] The experiments were performed twice.

[2] = target: equine butyrylcholinesterase (eqBChE) (Equus caballus, UniProt P81908); test: biochemical; settings: for SI (selectivity index): IC50 (AChE)/IC50 (BChE), eeAChE and eqBChE; for IC50: eqBChE, 15 min pre-incubation, pH 8.00, read-out: BChE Inhib IC50
equine butyrylcholinesterase (eqBChE), sequence (P81908 whole entry): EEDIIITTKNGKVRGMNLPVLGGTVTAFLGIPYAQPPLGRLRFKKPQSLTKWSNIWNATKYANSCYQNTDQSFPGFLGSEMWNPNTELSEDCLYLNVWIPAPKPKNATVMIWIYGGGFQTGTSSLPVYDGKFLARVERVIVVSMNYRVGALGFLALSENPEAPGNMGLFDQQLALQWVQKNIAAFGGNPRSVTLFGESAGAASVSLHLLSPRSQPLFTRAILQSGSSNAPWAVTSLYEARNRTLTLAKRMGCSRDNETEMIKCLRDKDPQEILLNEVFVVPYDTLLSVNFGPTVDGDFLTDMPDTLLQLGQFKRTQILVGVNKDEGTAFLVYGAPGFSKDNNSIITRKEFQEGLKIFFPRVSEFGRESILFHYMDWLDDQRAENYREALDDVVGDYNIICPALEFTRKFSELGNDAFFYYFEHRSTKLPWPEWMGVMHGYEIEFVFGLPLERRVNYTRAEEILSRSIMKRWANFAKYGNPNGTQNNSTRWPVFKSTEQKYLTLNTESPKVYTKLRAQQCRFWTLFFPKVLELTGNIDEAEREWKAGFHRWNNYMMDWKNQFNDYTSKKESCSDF
Experimental: as §1

Aβ42 fibrils = target: T2, Aβ42 fibrils (Homo sapiens, UniProt P05067); test: TEM assay of Aβ42 fibrils in the absence of Cu(II); type: biochemical; settings: 48 h 37 °C; for Reduction of fibril width vs Aβ42 alone / Aβ42 fibril width: TEM; for Reduction of fibril width vs Aβ42 alone: 50 µM; for Aβ42 fibril width: CAβ42 = CL = 50 µM, Aβ42 alone 4.9 ± 0.2 nm
T2 construct: Beta-amyloid protein, fragment 1-42; purchased Sigma-Aldrich
T2 sequence (P05067 672-713 limits assumed): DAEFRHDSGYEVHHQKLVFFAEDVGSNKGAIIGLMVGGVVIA
Experimental: To perform the TEM assays, commercial Aβ42 purchased from Sigma-Aldrich was pre-treated with pure HFIP, a beta-sheet disruptor, to obtain homogeneous and monomeric Aβ42 [54]. Then, 222 µL of HFIP was added to 1 mg of Aβ42, after which the mixture was vortexed and aliquoted into Eppendorfs. The Eppendorfs were placed in a SpeedVac at 45 °C for 30 min until all HFIP was evaporated. Pre-treated Aβ42 was stored at −20 °C until use. To start the amyloid incubations, pre-treated Aβ42 was equilibrated at room temperature for 30 min. A solution of 5 mM was obtained by dissolution in DMSO and sonication for 5 min. Subsequently, 10 mM HCl was added to obtain a working Aβ42 solution of 200 µM. Stock solutions of Cu(II) and RIV–BIM compounds (4a–d, 5a,b and 5d) at 200 µM were prepared on the same day and working solutions of Aβ42, Aβ42 + Cu(II), Aβ42 + RIV–BIM and Aβ42 + Cu(II) + RIV–BIM (CAβ42 = CCu = CL = 50 µM) were prepared by diluting stock solutions in 10 mM HCl. Working solutions were incubated for 48 h at 37 °C before being analyzed by TEM. Samples were negatively stained with uranyl acetate 2% (w/v) and analyzed at 100 kv with a JEOL JEM 1400 Plus transmission electron microscope. Fibrils of Aβ42 alone were compared with Aβ42 + RIV–BIM fibrils, and fibrils of Aβ42 + Cu(II) were compared with Aβ42 + Cu(II) + RIV–BIM in order to evaluate the inhibition of the amyloid aggregation, and the widths and lengths of fibrils were measured for each sample. The ImageJ program was used to measure the fibrils (n = 200).
To perform the Aβ42 aggregation assays by TEM, fibrils were incubated using a fluorescence procedure previously described.
Amyloid fibrils remained disaggregated under the effect of the RIV–BIM compounds after 48 h of incubation. […] For each of the performed assays, fibril width was measured, and the results are graphed in Figure 5. Aβ42 fibril width in the absence of Cu(II) (Figure 5a) was 4.9 ± 0.2 nm, and it was modified in the presence of all RIV–BIM compounds: compound 4d was the only one that widened amyloid fibrils (6.7 ± 0.3 nm), while the rest of the compounds narrowed them (3.3–4.5 nm).

T1 sequence (O42275 24-633): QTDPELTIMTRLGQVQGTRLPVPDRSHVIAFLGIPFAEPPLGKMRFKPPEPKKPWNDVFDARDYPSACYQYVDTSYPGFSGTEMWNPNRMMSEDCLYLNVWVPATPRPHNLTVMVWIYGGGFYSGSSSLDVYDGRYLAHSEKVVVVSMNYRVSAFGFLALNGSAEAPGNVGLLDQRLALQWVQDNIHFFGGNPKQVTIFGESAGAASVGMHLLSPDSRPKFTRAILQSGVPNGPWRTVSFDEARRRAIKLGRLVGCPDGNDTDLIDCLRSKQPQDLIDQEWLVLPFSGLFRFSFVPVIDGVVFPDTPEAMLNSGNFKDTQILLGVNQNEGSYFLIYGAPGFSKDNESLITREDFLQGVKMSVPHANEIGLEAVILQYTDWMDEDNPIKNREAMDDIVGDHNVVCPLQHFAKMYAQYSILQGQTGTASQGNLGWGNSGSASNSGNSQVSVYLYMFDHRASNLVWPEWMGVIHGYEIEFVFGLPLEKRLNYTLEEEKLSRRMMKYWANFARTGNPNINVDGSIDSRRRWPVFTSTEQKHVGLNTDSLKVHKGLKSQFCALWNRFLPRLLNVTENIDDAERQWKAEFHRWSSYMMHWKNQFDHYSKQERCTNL

| Structure (SMILES) | IC50 [1] [µM] | SI (selectivity index) [2] | IC50 [2] [µM] | Appearance of Aβ42 fibrils in TEM images (Aβ42 fibrils) | Reduction of fibril width vs Aβ42 alone (Aβ42 fibrils) [%] | Aβ42 fibril width (Aβ42 fibrils) |
| --- | --- | --- | --- | --- | --- | --- |
| CCN(C)C(=O)Oc1cccc(CNC(=O)c2cccc3[nH]c(-c4ccccc4O)nc23)c1 [Compound 5b, 3-((2-(2-Hydroxyphenyl)-1H-benzo[d]imidazole-4-carboxamido)methyl) Phenyl Ethylmethylcarbamate] | 31.7 ± 0.1 | 105.7 | 0.3 ± 0.01 | shortest fibrils | 22.4 | 3.8 nm and 3.8 ± 0.1 nm |
| CCN(C)C(=O)Oc1ccc(CCCNC(=O)c2ccc3nc(-c4ccccc4O)[nH]c3c2)cc1 [Compound 4d, 4-(3-(2-(2-Hydroxyphenyl)-1H-benzo[d]imidazole-6-carboxamido)propyl) Phenyl Ethylmethylcarbamate] | 24 ± 1 | 1.25 | 19.2 ± 0.7 | quite elongated fibrils | – | 6.7 nm and 6.7 ± 0.3 nm |
| CCN(C)C(=O)Oc1cccc(CNC(=O)c2ccc3nc(-c4ccccc4O)[nH]c3c2)c1 [Compound 4b, 3-((2-(2-Hydroxyphenyl)-1H-benzo[d]imidazole-6-carboxamido)methyl) Phenyl Ethylmethylcarbamate] | 14 ± 2 | 2.17 | 6.5 ± 0.4 | shortest fibrils | – | 4.1 nm |
| CCN(C)C(=O)Oc1cccc(NC(=O)c2cccc3[nH]c(-c4ccccc4O)nc23)c1 [Compound 5a, 3-(2-(2-Hydroxyphenyl)-1H-benzo[d]imidazole-4-carboxamido)phenyl Ethylmethylcarbamate] | 17.6 ± 0.4 | 19.6 | 0.9 ± 0.1 | – | – | 4.5 nm |
| CCN(C)C(=O)Oc1ccc(CCCNC(=O)c2cccc3[nH]c(-c4ccccc4O)nc23)cc1 [Compound 5d, 4-(3-(2-(2-Hydroxyphenyl)-1H-benzo[d]imidazole-4-carboxamido) Propyl) Phenyl Ethyl(methyl)carbamate] | 21.4 ± 0.4 | 12.6 | 1.7 ± 0.2 | – | 32.7 | 3.3 nm and 3.3 ± 0.2 nm |
| CCN(C)C(=O)Oc1cccc(NC(=O)c2ccc3nc(-c4ccccc4O)[nH]c3c2)c1 [Compound 4a, 3-(2-(2-Hydroxyphenyl)-1H-benzo[d]imidazole-6-carboxamido)phenyl Ethylmethylcarbamate] | 17.6 ± 0.6 | 3.03 | 5.85 ± 0.03 | shortest fibrils | – | 4.1 nm |
| CCN(C)C(=O)Oc1cccc(CCNC(=O)c2ccc3nc(-c4ccccc4O)[nH]c3c2)c1 [Compound 4c, 3-(2-(2-(2-Hydroxyphenyl)-1H-benzo[d]imidazole-6-carboxamido)ethyl) Phenylethylmethylcarbamate] | 17.7 ± 0.8 | 3.69 | 4.8 ± 0.1 | quite elongated fibrils | – | 4.1 nm |
